Data taken from US9399788B2, “Method for inspecting susceptibility of bacteria or fungi to antimicrobial drug and system for use in the same” (priority 2011, dated 2016).
Values after ≈ are worked out from the molar mass of the structure shown.

Key:
[1] = tested on: #2 strain of Pseudomonas aeruginosa (multi-drug resistant strain); test: MIC by broth microdilution method according to the CLSI standards (standard method); type: cell-based
[2] = tested on: #2 strain of Pseudomonas aeruginosa (multi-drug resistant strain); test: MIC by method using micro-device 1 (microscope observation of growth and shape in flow channel); type: cell-based; details: for MIC: Pseudomonas aeruginosa, read-out: MIC (minimum inhibitory concentration)
Protocol: Thus, antimicrobial drug solutions were prepared.
Pseudomonas aeruginosa was pre-cultured at 37° C. for 24 hours using a Mueller-Hinton Agar (Becton, Dickinson and Company) plate. A colony was suspended in a Mueller-Hinton broth so as to have MacFarland=0.5 (OD600=0.132). As Pseudomonas aeruginosa, multi-drug resistant strains #2 and #5 (available from BML) and an S1 strain (susceptibility strain, available from BML) were used.
The antimicrobial drug solution obtained in the (2) above and the culture solution obtained in the (3) above were mixed at a volume ratio of 1 9, and 1 μL of a resultant mixture was injected into each inlet of a micro-device 1. As a control, sterile water as a substitute for the antimicrobial drug solution and the culture solution were mixed at a volume ratio of 1:9, and 1 μL of a resultant mixture was injected into an inlet of the micro-device 1. Then, the micro-device 1 was placed in a petri dish, and the petri dish was placed in an airtight container. Kimwipe (Trade Mark) containing water was placed in each of the petri dish and the airtight container. The airtight container was placed in an incubator at 37° C. and incubated for 3 hours. The relative humidity of each of the airtight container and the petri dish was 97%.
The micro-device 1 was taken out of the airtight container, and an increase or decrease in the amount of bacteria and a change in shape relative to the control in an observation area was checked by a microscope, and the MIC (minimum inhibitory concentration) was determined.

[3] = method using the micro-device, 37° C., 3 hours incubation

| Compound | MIC ([1]; Pseudomonas aeruginosa, standard method (broth microdilution, CLSI), read-out: MIC (minimum inhibitory concentration)) | MIC [2, 3] | determination based on the break point of CLSI ([1]; MIC by standard method) | MIC (minimum inhibitory concentration) ([1]; standard method (broth microdilution, CLSI)) | determination based on the break point of CLSI ([2]; MIC by method using the micro-device) | MIC (minimum inhibitory concentration) [2, 3] |
| --- | --- | --- | --- | --- | --- | --- |
| NCC[C@H](O)C(=O)N[C@@H]1C[C@H](N)[C@@H](O[C@H]2O[C@H](CN)[C@@H](O)[C@H](O)[C@H]2O)[C@H](O)[C@H]1O[C@H]1O[C@H](CO)[C@@H](O)[C@H](N)[C@H]1O [AMK, Amikacin] | 64 µg/mL (≈ 109 µM) | ≥ 32 µg/mL |  |  |  |  |
| O=C(O)c1cn(C2CC2)c2cc(N3CCNCC3)c(F)cc2c1=O [CPFX, Ciprofloxacin] |  | ≥ 4 µg/mL |  |  |  |  |
| Imipenem/Cilastatin [IPM] |  |  | Resistance (R) | 32 µg/mL | Resistance (R) | 16 µg/mL |
